One assay concerns the target T1, human 5-HT7(a) receptors (Homo sapiens, UniProt P34969).
T1 construct: expressed in transfected cells
The experiment in a line: Radioligand binding assay with [3H]5-CT, membranes of HEK293 cells stably expressing human 5-HT7(a) receptors. As to conditions: 5-HT7 ligands, values are pKd ± half-range, read-out: Binding affinity (pKd value) (pKd ± SEM) (converted). The procedure:
(§1) Binding assays were performed in 96-well, round-bottom microtiter plates with total reaction volumes of 50-200 μl, containing the indicated concentration of [^3H]GR113808 with or without competing unlabelled ligand in a binding buffer containing 50 mM Tris-HCl (pH 7.5 at RT), 1 mM EDTA, 5 mM EGTA, 2 mM MgCl2, 1 mM ascorbate, 0.1% BSA and 100 μM GTP. The plates were incubated at 23° C. for 60 min and harvested onto UniFilter™-96 GF/C™ (Packard Instrument Co., Meriden, Conn., USA), presoaked in 0.3% polyethyleneimine (Sigma), using a Packard FilterMate Universal Harvester with 96-well format, and washed 4-6 times with approximately 0.25 ml/well of ice-cold buffer, containing 50 mM Tris-HCl (pH 7.0 at RT) and 2 mM MgCl2. The filters were dried and counted at approximately 40% efficiency in a Top-Count liquid scintillation counter (Packard), using 20 μl per filter well of Micro-Scint liquid scintillation cocktail (Packard).
The same materials and methods described in example 83 were used for the biological testing of hydrophilic 5-HT7 and 5-HT2A ligands. Membrane preparations of HEK293 cell lines stably expressing human 5-HT7(a) receptors (Krobert et al. 2001), or HEK293 cells transiently transfected with human 5-HT2A receptor were used in the binding assays. 5-Carboxamido [^3H]tryptamine trifluoroacetate ([^3H]5-CT) and [^3H]ketanserin were used as radioligands in binding assays testing 5-HT7 and 5-HT2A ligands, respectively.
[^3H]5-CT (91 Ci/mmol) was from Amersham (Buckinghamshire, England). [^3H]ketanserin (72.2 Ci/mmol) was from Perkin Elmer (Boston, Mass., USA).

For a further assay, the target named is T2, human 5-HT2A receptor (Homo sapiens, UniProt P28223).
T2 construct: expressed in transfected cells; host or cells: HEK293, transient transfection
T2 sequence (P28223 whole entry): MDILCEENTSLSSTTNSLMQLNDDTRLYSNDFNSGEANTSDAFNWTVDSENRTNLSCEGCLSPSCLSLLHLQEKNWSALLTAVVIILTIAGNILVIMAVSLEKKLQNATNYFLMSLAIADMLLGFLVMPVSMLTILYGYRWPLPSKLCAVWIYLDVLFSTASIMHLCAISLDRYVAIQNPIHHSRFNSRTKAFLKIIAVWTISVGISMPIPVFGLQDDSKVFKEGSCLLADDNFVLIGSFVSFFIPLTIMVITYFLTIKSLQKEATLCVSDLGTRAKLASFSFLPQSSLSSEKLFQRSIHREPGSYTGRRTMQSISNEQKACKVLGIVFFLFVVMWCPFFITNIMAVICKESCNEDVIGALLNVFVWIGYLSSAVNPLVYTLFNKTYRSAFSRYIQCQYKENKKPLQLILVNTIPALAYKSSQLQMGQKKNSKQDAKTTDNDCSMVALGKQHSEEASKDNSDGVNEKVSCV
The experiment in a line: Radioligand binding assay with [3H]ketanserin, membranes of HEK293 cells transiently transfected with human 5-HT2A receptor. As to conditions: 5-HT2A ligands, values are pKd ± half-range, read-out: Binding affinity (pKd value) (pKd ± SEM) (converted). The procedure: as §1
The same materials and methods described in example 83 were used for the biological testing of hydrophilic 5-HT7 and 5-HT2A ligands. Membrane preparations of HEK293 cell lines stably expressing human 5-HT7(a) receptors (Krobert et al. 2001), or HEK293 cells transiently transfected with human 5-HT2A receptor were used in the binding assays. […]

Where a name gives a salt, the structure may show the parent alone.

T1 sequence (P34969 1-445 isoform P34969-2): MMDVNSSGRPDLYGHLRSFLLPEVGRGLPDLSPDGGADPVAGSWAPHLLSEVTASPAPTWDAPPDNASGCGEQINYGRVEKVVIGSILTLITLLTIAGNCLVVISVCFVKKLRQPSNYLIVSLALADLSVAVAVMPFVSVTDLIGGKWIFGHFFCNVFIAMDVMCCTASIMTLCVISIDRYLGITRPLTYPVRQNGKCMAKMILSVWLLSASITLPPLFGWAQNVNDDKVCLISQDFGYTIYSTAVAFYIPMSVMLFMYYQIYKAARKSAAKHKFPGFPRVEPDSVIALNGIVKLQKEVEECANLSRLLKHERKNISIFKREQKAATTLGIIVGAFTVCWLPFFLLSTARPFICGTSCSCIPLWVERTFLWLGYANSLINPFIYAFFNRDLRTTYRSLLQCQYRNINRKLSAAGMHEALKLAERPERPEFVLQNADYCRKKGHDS

On to `COC(=O)c1ccc(CN2CC=C(c3c[nH]c4ccc(OC)cc34)CC2)cc1` [Example 9], for which the Kd on human 5-HT7(a) receptors was 8.51 µM.
Same read-out and setting: the value for `COC(=O)c1ccc(CN2CC=C(c3c[nH]c4ccccc34)CC2)cc1` [Example 68] was 11.5 µM; that for `O=C(O)c1ccc(CN2CC=C(c3c[nH]c4ccccc34)CC2)cc1` [Example 69] was 81.3 µM; that for `CCOC(=O)CCCN1CC=C(c2c[nH]c3ccccc23)CC1` [Example 70] was 0.661 µM.
`COC(=O)c1ccc(CN2CCC(NC(=O)C34CC5CC(CC(C5)C3)C4)C2)cc1` (centres unmarked) [Example 72]: the Kd at human 5-HT2A receptor was 49 µM.
`COC(=O)c1ccc(CN2CCN(CCCCC34CCCc5cccc(c53)NC4=O)CC2)cc1` (centres unmarked) [Example 75]: at human 5-HT7(a) receptors, the Kd is 15.8 µM.
For `O=C(O)c1ccc(CN2CCN(CCCCC34CCCc5cccc(c53)NC4=O)CC2)cc1` (centres unmarked) [Example 76], the Kd on human 5-HT7(a) receptors was 135 µM.
Take `COc1cc(OC)c(C(=O)CCCCN2CCC3(CC2)NC(=O)NC3=O)cc1NS(=O)(=O)c1ccc(C(F)(F)F)cc1` [RS102221, 8-(5-(2,4-Dimethoxy-5-(4-trifluoromethylphenylsulphonamido)phenyl-5-oxopentyl]-1,3,8-triazaspiro[4.5]decane-2,4-dione hydrochloride, reference compound]: the Kd at human 5-HT2A receptor was 4.57 µM.
